Laboratory results as given in US12507703B2, “Methods, devices and compositions for preserving human milk” (The Trustees of Princeton University, priority 2023, dated 2025).
Several values for one entry are separate records, joined by “and”; a condition that tells them apart may be missing. Equal entries are not always repeated.

Tested on: lipase
Experiment: Lipase/lipolysis assay (EnzChek Lipase Substrate, quenched BODIPY-fatty acid conjugate) on stored human milk; further: test concentration or dose not given here

Compound | Lipase (RFU)
C[C@H](CCC(=O)NCCS(=O)(=O)O)[C@H]1CC[C@H]2[C@@H]3[C@H](O)C[C@@H]4C[C@H](O)CC[C@]4(C)[C@H]3C[C@H](O)[C@]12C [Taurocholic Acid] | 1299.592 RFU and 949.1523 RFU and 900.9931 RFU
CCCCCCCCC(=O)NCc1ccc(O)c(OC)c1 [Nonivamide] | 911.9923 RFU and 1070.28 RFU
COc1cc(OC)c(OC)cc1C=O [Asaraldehyde] | 982.6997 RFU
Nc1ncnc2c1ncn2[C@@H]1O[C@H](COP(=O)(O)OP(=O)([O-])OP(=O)([O-])O)[C@@H](O)[C@H]1O.O.[Na+].[Na+] [ATP (disodium salt hydrate)] | 750.5023 RFU
COc1cc(O)c(C(=O)/C=C/c2ccccc2)c(O)c1 [Pinostrobin chalcone] | 969.4657 RFU
Notoginsenoside Fe | 902.3283 RFU
COc1nccc(N)n1 [Compound 2-O-Methylcytosine] | 1109.623 RFU
C/C=C/C=C/C(=O)[O-].[K+] [Potassium sorbate] | 727.0693 RFU and 1055.671 RFU
O=C(O)C1CSSC1 [Asparagusic acid] | 934.8474 RFU
C[C@]12CC[C@H]3[C@@H](CCC4=CC(=O)CC[C@@]43C)[C@@H]1CC[C@@H]2C(=O)CO [Deoxycorticosterone] | 992.8813 RFU
CC(C)=CCC[C@](C)(O[C@@H]1O[C@H](CO[C@@H]2OC[C@@H](O)[C@H](O)[C@H]2O)[C@@H](O)[C@H](O)[C@H]1O)[C@H]1CC[C@]2(C)[C@@H]1[C@H](O)C[C@@H]1[C@@]3(C)CC[C@H](O[C@@H]4O[C@H](CO)[C@@H](O)[C@H](O)[C@H]4O[C@@H]4O[C@H](CO)[C@@H](O)[C@H](O)[C@H]4O[C@@H]4OC[C@@H](O)[C@H](O)[C@H]4O)C(C)(C)[C@@H]3CC[C@]12C [Notoginsenoside Fc] | 1131.911 RFU
C[C@H]1CC[C@@H]2[C@@H](C)[C@H]3[C@H](C[C@H]4[C@@H]5CC=C6C[C@@H](O[C@@H]7O[C@H](CO)[C@H](O)[C@H](O[C@@H]8O[C@H](CO)[C@@H](O)[C@H](O)[C@H]8O)[C@H]7O[C@@H]7O[C@@H](C)[C@H](O)[C@@H](O)[C@H]7O)CC[C@]6(C)[C@H]5CC[C@]34C)N2C1 [α-Solanine] | 840.4474 RFU
C[C@@H]1CC[C@@]2(OC1)O[C@H]1C[C@H]3[C@@H]4CC=C5C[C@@H](O[C@@H]6O[C@H](CO)[C@@H](O)[C@H](O)[C@H]6O)CC[C@]5(C)[C@H]4CC[C@]3(C)[C@H]1[C@@H]2C [Diosgenin glucoside] | 1057.302 RFU
Rhamnose | 816.2993 RFU and 1253.305 RFU
CCCCC1OC(=O)c2ccccc21 (stereo not drawn) [Butylphthalide] | 989.7778 RFU
CC(C)=CCC[C@@](C)(O)[C@H]1CC[C@]2(C)[C@@H]1[C@H](O)C[C@@H]1[C@@]3(C)CC[C@H](O)C(C)(C)[C@@H]3CC[C@]12C [(20R)-Protopanaxadiol] | 1067.282 RFU
Curdlan | 876.416 RFU
CC(CCC1(O)OC2CC3C4CCC5CC(OC6OC(CO)C(O)C(O)C6OC6OC(CO)C(O)C(O)C6O)CCC5(C)C4CCC3(C)C2C1C)COC1OC(CO)C(O)C(O)C1O (stereo not drawn) [Officinalisinin I] | 937.9671 RFU
COc1ccc(-c2cc(=O)c3c(O)cc(O[C@@H]4O[C@H](CO)[C@@H](O)[C@H](O)[C@H]4O[C@@H]4O[C@@H](C)[C@H](O)[C@@H](O)[C@H]4O)cc3o2)cc1O [Neodiosmin] | 928.3945 RFU
OC[C@H]1O[C@@H](O[C@H]2[C@H](O)[C@@H](O)[C@H](O)O[C@@H]2CO)[C@H](O)[C@@H](O)[C@@H]1O [D-(+)-Cellobiose] | 821.3157 RFU
COc1ccc(C=O)cc1OC [Veratraldehyde] | 898.3756 RFU and 979.6116 RFU
CCCCCC1CCCC(=O)O1 (stereo not drawn) [δ-Decalactone] | 1070.795 RFU

Compound | Lipase (RFU)
NC(Cc1ccc(O)c(O)c1)C(=O)O (racemic) [DL-Dopa] | 819.29 RFU
O=CC[C@H](O)[C@H](O)CO [Thyminose] | 811.3551 RFU
O=Cc1cc(O)c(O)c(O)c1 [Gallic aldehyde] | 942.9255 RFU
C[C@@H]1CCCCCCCCCCCCC(=O)C1 [Muscone] | 696.5228 RFU
C=CC(C)(CCC=C(C)C)OC(C)=O (stereo not drawn) [Linalyl acetate] | 753.0162 RFU and 717.2876 RFU
O=C(CO)[C@@H](O)[C@H](O)[C@@H](O)C(=O)O [5-Keto-D-Gluconic Acid] | 922.1469 RFU
COc1cc(CC(=O)C(=O)O)ccc1O [Vanilpyruvic acid] | 1086.418 RFU
O=C(O)/C=C/c1c[nH]cn1 [Urocanic acid] | 1101.226 RFU
CC1(C)Oc2cc3oc(-c4cc(O)cc(O)c4)cc3cc2C[C@H]1O [Moracin P] | 751.9577 RFU
CC[C@H]1OC(=O)C[C@@H](O)[C@H](C)[C@@H](O[C@@H]2O[C@H](C)[C@@H](O[C@H]3C[C@@](C)(O)[C@@H](O)[C@H](C)O3)[C@H](N(C)C)[C@H]2O)[C@@H](CC=O)C[C@@H](C)C(=O)/C=C/C(C)=C/[C@@H]1CO[C@@H]1O[C@H](C)[C@@H](O)[C@@H](OC)[C@H]1OC.O=C(O)C(O)C(O)C(=O)O [Tylosin (tartrate)] | 942.0391 RFU
O=c1c(O)c(-c2ccc(O)c(O)c2)oc2cc(O)c(O)c(O)c12 [Quercetagetin] | 891.7095 RFU
Catechin | 945.7654 RFU
Cl.Cl.NCCc1c[nH]cn1 [Histamine (dihydrochloride)] | 1022.007 RFU
CCCCCCC[C@H](O)CC(=O)CCc1ccc(O)c(OC)c1 [Compound 8-Gingerol] | 724.4815 RFU
COc1ccc(CC(=O)O)cc1O [Isohomovanillic acid] | 1060.172 RFU
N[C@@H](Cc1ccc(O)c(Cl)c1)C(=O)O [Compound 3-Chloro-L-tyrosine, 3-Chloro-L-tyrosine] | 1117.619 RFU
NC(=O)c1ccc[n+]([C@@H]2O[C@H](COP(=O)([O-])OP(=O)(O)OC[C@H]3O[C@@H](n4cnc5c(N)ncnc54)[C@H](OP(=O)(O)O)[C@@H]3O)[C@@H](O)[C@H]2O)c1 [NADP] | 1113.421 RFU
CC(=O)O [Acetic Acid] | 1200.605 RFU
O=C(O)[C@H]1O[C@@H](Oc2cc(O)c3c(=O)cc(-c4ccc(O)c(O)c4)oc3c2)[C@H](O)[C@@H](O)[C@@H]1O [Luteolin 7-O-glucuronide] | 995.7867 RFU
(−)-Epigallocatechin | 928.0708 RFU
C[C@H](CCC(=O)NCCS(=O)(=O)[O-])[C@H]1CC[C@H]2[C@@H]3[C@H](O)C[C@@H]4C[C@H](O)CC[C@]4(C)[C@H]3CC[C@]12C.[Na+] [Taurochenodeoxycholic acid (sodium)] | 1047.423 RFU
Theaflavin-3′-gallate | 780.4384 RFU

Compound | Lipase (RFU)
COc1cc(/C=C/CO)cc(OC)c1O[C@@H]1O[C@H](CO)[C@@H](O)[C@H](O)[C@H]1O [Syringin] | 935.9617 RFU
N=C(N)NOCC[C@H](N)C(=O)O.O=S(=O)(O)O [L-Canavanine sulfate] | 903.0256 RFU
O=c1cc(-c2ccc(O)c(O)c2)oc2cc(O[C@@H]3O[C@H](CO)[C@@H](O)[C@H](O)[C@H]3O)cc(O)c12 [Cynaroside] | 1111.46 RFU
NC(Cc1ccccc1O)C(=O)O (racemic) [DL-O-Tyrosine] | 919.2122 RFU
C[C@H](CCC(=O)O)[C@H]1CC[C@H]2[C@@H]3[C@@H](O)C[C@@H]4C[C@H](O)CC[C@]4(C)[C@H]3C[C@H](O)[C@]12C [Ursocholic acid] | 879.9608 RFU
CCCCCCCCCC(C)=O [Compound 2-Undecanone, 2-Undecanone] | 1119.854 RFU
O=c1cc(-c2ccc(O)cc2)oc2c([C@@H]3O[C@H](CO)[C@@H](O)[C@H](O)[C@H]3O)c(O)c([C@@H]3O[C@H](CO)[C@@H](O)[C@H](O)[C@H]3O)c(O)c12 [Vicenin 2] | 893.9745 RFU
Oc1cc(O)c2cc(O)c(-c3cc(O)c(O)c(O)c3)[o+]c2c1.[Cl-] [Delphinidin (chloride)] | 816.1782 RFU
COc1cc(C(=O)O)cc(OC)c1OC [3,4,5-Trimethoxybenzoic acid] | 1121.402 RFU
C[N+](C)(C)CCOP(=O)(O)O.[Cl-] [Phosphorylcholine (chloride)] | 831.0181 RFU
OC[C@H]1OC(O)[C@H](O)[C@@H](O)[C@@H]1O (stereo partly drawn) [D--Glucose] | 992.2563 RFU
CCN(CC)CCOC(=O)C(Cc1cccc2ccccc12)CC1CCCO1.O=C(O)C(=O)O (stereo not drawn) [Naftidrofuryl (oxalate)] | 1022.029 RFU
C[C@H](CCC(=O)NCCS(=O)(=O)O)[C@H]1CC[C@H]2[C@@H]3[C@H](O)C[C@@H]4C[C@H](O)CC[C@]4(C)[C@H]3C[C@H](O)[C@]12C [Taurocholic acid (sodium)] | 1062.302 RFU and 748.8784 RFU
N[C@@H](CC(=O)O)C(=O)[O-].[Na+] [L-Aspartic aicd (sodium)] | 708.7772 RFU and 1026.622 RFU
C[N+]1(C)CCC[C@H]1C(=O)[O-] [Stachydrine] | 1061.585 RFU
CC(=O)c1ccc(O)cc1 [4-Hydroxyacetophenone] | 724.0191 RFU
NCCS(=O)O [Hypotaurine] | 1147.047 RFU and 798.4494 RFU
Oc1cc(O)c2c(c1)O[C@H](c1ccc(O)c(O)c1)[C@H](O)C2 [(−)-Epicatechin] | 927.1089 RFU
CCCCCCCC(=O)CCc1ccc(O)c(OC)c1 [Paradol] | 1060.26 RFU and 1109.933 RFU
C[C@H](CCC(=O)O)[C@H]1CC[C@H]2[C@@H]3[C@H](O)C[C@@H]4C[C@H](O)CC[C@]4(C)[C@H]3C[C@H](O)[C@]12C [Cholic acid] | 761.6522 RFU and 886.7213 RFU
CC(=O)N[C@H]1[C@H](O[C@H]2[C@H](O)[C@@H](NC(C)=O)C(O)O[C@@H]2CO)O[C@H](CO)[C@@H](O[C@@H]2O[C@H](CO)[C@@H](O)[C@H](O)[C@H]2NC(C)=O)[C@@H]1O (stereo partly drawn) [N,N′,N″-Triacetylchitotriose] | 1143.03 RFU
C/C(=C\CC[C@@H](C)[C@H]1CC[C@@]2(C)C3=C(CC[C@]12C)[C@@]1(C)CCC(=O)C(C)(C)[C@@H]1CC3=O)C(=O)O [Ganoderic acid DM] | 1077.482 RFU
